# Measured values: patent US5530126A, “Process for the preparation of substituted 6-(pyrazol-3yl)-1,4-benzoxazin-3-ones” (Monsanto Company, priority 1994, dated 1996)
# Tests used:
# Format in all cases: in vivo
# Velvetleaf [1] = experiment: Post-emergence herbicide test; conditions: Abutilon theophrasti, read-out: % plant inhibition (Vele); for inhibition at 1120 g/ha: 1.12 kg/ha
# How it was run: (§1)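 Post-emergence greenhouse spray: 2–3-wk-old plants in soil pans; atomizer at 170.3 kPa (10 psig); 1870 L/Ha carrier volume, ~0.4% v/v emulsifier. Read-out is % inhibition vs control at 10–14 d (usually 11 d), occasionally also 24–28 d.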
# Downy Brome [2] = experiment: Post-emergence herbicide test; conditions: Bromus tectorum, read-out: % plant inhibition (Dobr); for inhibition at 1120 g/ha: 1.12 kg/ha
# How it was run: as §1
# Morningglory [3] = experiment: Post-emergence herbicide test; conditions: Ipomoea, read-out: % plant inhibition (Mogl); for inhibition at 1120 g/ha: 1.12 kg/ha
# How it was run: as §1
# Yellow nutsedge [4] = experiment: Post-emergence herbicide test; conditions: Cyperus, read-out: % plant inhibition (Yens); for inhibition at 1120 g/ha: 1.12 kg/ha
# How it was run: as §1
# Annual bluegrass [5] = experiment: Post-emergence herbicide test; conditions: read-out: % plant inhibition (Anbg); for inhibition at 1120 g/ha: 1.12 kg/ha
# How it was run: as §1
# Indian Mustard [6] = experiment: Post-emergence herbicide test; conditions: Brassica juncea, read-out: % plant inhibition (Inmu); for inhibition at 1120 g/ha: 1.12 kg/ha
# How it was run: as §1
# Barnyardgrass [7] = experiment: Post-emergence herbicide test; conditions: Echinochloa crus-galli, read-out: % plant inhibition (Bygr); for inhibition at 1120 g/ha: 1.12 kg/ha
# How it was run: as §1
# Seedling johnsongrass [8] = experiment: Post-emergence herbicide test; conditions: Sorghum halepense, read-out: % plant inhibition (Sejg); for inhibition at 1120 g/ha: 1.12 kg/ha
# How it was run: as §1
# Wild buckwheat [9] = experiment: Post-emergence herbicide test; conditions: Fallopia convolvulus, read-out: % plant inhibition (Wibw); for inhibition at 1120 g/ha: 1.12 kg/ha
# How it was run: as §1
# Cocklebur [10] = experiment: Post-emergence herbicide test; conditions: Xanthium strumarium, read-out: % plant inhibition (Cobu); for inhibition at 1120 g/ha: 1.12 kg/ha
# How it was run: as §1
# Velvetleaf [11] = experiment: Pre-emergence herbicide test; conditions: Abutilon theophrasti, read-out: % plant inhibition (Vele); for inhibition at 1120 g/ha: 1.12 kg/ha
# How it was run: (§2)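 Known dose of active, dissolved or suspended in acetone or water, delivered onto seed bed prior to emergence and buried under untreated topsoil. Greenhouse incubation with watering from below. Percentage inhibition rated 10-14 days after seeding.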
# Downy Brome [12] = experiment: Pre-emergence herbicide test; conditions: Bromus tectorum, read-out: % plant inhibition (Dobr); for inhibition at 1120 g/ha: 1.12 kg/ha
# How it was run: as §2
# Morningglory [13] = experiment: Pre-emergence herbicide test; conditions: Ipomoea, read-out: % plant inhibition (Mogl); for inhibition at 1120 g/ha: 1.12 kg/ha
# How it was run: as §2
# Yellow nutsedge [14] = experiment: Pre-emergence herbicide test; conditions: Cyperus, read-out: % plant inhibition (Yens); for inhibition at 1120 g/ha: 1.12 kg/ha
# How it was run: as §2
# Annual bluegrass [15] = experiment: Pre-emergence herbicide test; conditions: read-out: % plant inhibition (Anbg); for inhibition at 1120 g/ha: 1.12 kg/ha
# How it was run: as §2
# Indian Mustard [16] = experiment: Pre-emergence herbicide test; conditions: Brassica juncea, read-out: % plant inhibition (Inmu); for inhibition at 1120 g/ha: 1.12 kg/ha
# How it was run: as §2
# Barnyardgrass [17] = experiment: Pre-emergence herbicide test; conditions: Echinochloa crus-galli, read-out: % plant inhibition (Bygr); for inhibition at 1120 g/ha: 1.12 kg/ha
# How it was run: as §2
# Seedling johnsongrass [18] = experiment: Pre-emergence herbicide test; conditions: Sorghum halepense, read-out: % plant inhibition (Sejg); for inhibition at 1120 g/ha: 1.12 kg/ha
# How it was run: as §2
# Wild buckwheat [19] = experiment: Pre-emergence herbicide test; conditions: Fallopia convolvulus, read-out: % plant inhibition (Wibw); for inhibition at 1120 g/ha: 1.12 kg/ha
# How it was run: as §2
# Cocklebur [20] = experiment: Pre-emergence herbicide test; conditions: Xanthium strumarium, read-out: % plant inhibition (Cobu); for inhibition at 1120 g/ha: 1.12 kg/ha
# How it was run: as §2
# [21] = tested on: resistant broadleaf weeds such as pigweed, cocklebur, velvetleaf and hemp sesbania; experiment: Control of resistant broadleaf weeds in crops; conditions: in various crops such as corn, soybean and nuts and in forestry
Structure (SMILES),inhibition at 1120 g/ha (Velvetleaf [1]),inhibition at 1120 g/ha (Downy Brome [2]),inhibition at 1120 g/ha (Morningglory [3]),inhibition at 1120 g/ha (Yellow nutsedge [4]),inhibition at 1120 g/ha (Annual bluegrass [5]),inhibition at 1120 g/ha (Indian Mustard [6]),inhibition at 1120 g/ha (Barnyardgrass [7]),inhibition at 1120 g/ha (Seedling johnsongrass [8]),inhibition at 1120 g/ha (Wild buckwheat [9]),inhibition at 1120 g/ha (Cocklebur [10]),inhibition at 1120 g/ha (Velvetleaf [11]),inhibition at 1120 g/ha (Downy Brome [12]),inhibition at 1120 g/ha (Morningglory [13]),inhibition at 1120 g/ha (Yellow nutsedge [14]),inhibition at 1120 g/ha (Annual bluegrass [15]),inhibition at 1120 g/ha (Indian Mustard [16]),inhibition at 1120 g/ha (Barnyardgrass [17]),inhibition at 1120 g/ha (Seedling johnsongrass [18]),inhibition at 1120 g/ha (Wild buckwheat [19]),inhibition at 1120 g/ha (Cocklebur [20]),other results
"CC(C)OC(=O)c1cc(-c2nn(C)c(C(F)(F)F)c2Cl)c(F)cc1Cl [Compound 135, 2-chloro-5-[4-chloro-1-methyl-5-(trifluoromethyl)-1H-pyrazol-3-yl]-4-fluorobenzoic acid, 1-methylethyl ester]",100%,100%,100%,20%,100%,100%,100%,100%,100%,100%,100%,100%,90%,0%,100%,100%,100%,100%,100%,90%,control of resistant broadleaf weeds [21]: outstanding control
CC(C)OC(=O)COc1cc(-c2nn(C)c(C(F)(F)Cl)c2Cl)c(F)cc1Cl [Compound 285],100%,40%,100%,40%,30%,100%,70%,50%,100%,100%,100%,0%,100%,0%,0%,10%,50%,0%,80%,80%,
CCC(C)COC(=O)COc1cc(-c2nn(C)c(C(F)(F)F)c2Cl)c(F)cc1Cl (stereo not shown) [Compound 287],100%,10%,100%,10%,0%,20%,70%,80%,90%,100%,100%,0%,70%,30%,0%,60%,0%,0%,80%,90%,
CC(C)CCOC(=O)COc1cc(-c2nn(C)c(C(F)(F)F)c2Cl)c(F)cc1Cl [Compound 288],100%,0%,100%,10%,0%,90%,50%,20%,100%,100%,100%,0%,100%,0%,0%,20%,0%,0%,90%,30%,
"Cn1nc(-c2cc(OCC(=O)O)c(Cl)cc2F)c(Cl)c1C(F)(F)F [Compound 291, (2-Chloro-5-(4-chloro-1-methyl-5-(trifluoromethyl)-1H-pyrazol-3-yl)-4-fluorophenoxy)-acetic acid]",100%,20%,100%,30%,0%,40%,20%,30%,90%,100%,100%,20%,100%,30%,30%,40%,20%,40%,100%,100%,
C#CCOc1cc(-c2nn(C)c(C(F)(F)Cl)c2Cl)c(F)cc1Cl [Compound 303],,,,,,,,,,,,,,,,,,,,,inhibition at 11210 g/ha (Velvetleaf [1]; 11.21 kg/ha): 100%; inhibition at 11210 g/ha (Downy Brome [2]; 11.21 kg/ha): 100%; inhibition at 11210 g/ha (Morningglory [3]; 11.21 kg/ha): 100%; inhibition at 11210 g/ha (Yellow nutsedge [4]; 11.21 kg/ha): 70%; inhibition at 11210 g/ha (Annual bluegrass [5]; 11.21 kg/ha): 100%; inhibition at 11210 g/ha (Indian Mustard [6]; 11.21 kg/ha): 100%; inhibition at 11210 g/ha (Barnyardgrass [7]; 11.21 kg/ha): 100%; inhibition at 11210 g/ha (Seedling johnsongrass [8]; 11.21 kg/ha): 100%; inhibition at 11210 g/ha (Wild buckwheat [9]; 11.21 kg/ha): 100%; inhibition at 11210 g/ha (Cocklebur [10]; 11.21 kg/ha): 100%; inhibition at 11210 g/ha (Velvetleaf [11]; 11.21 kg/ha): 100%; inhibition at 11210 g/ha (Downy Brome [12]; 11.21 kg/ha): 100%; inhibition at 11210 g/ha (Morningglory [13]; 11.21 kg/ha): 100%; inhibition at 11210 g/ha (Yellow nutsedge [14]; 11.21 kg/ha): 0%; inhibition at 11210 g/ha (Annual bluegrass [15]; 11.21 kg/ha): 100%; inhibition at 11210 g/ha (Indian Mustard [16]; 11.21 kg/ha): 100%; inhibition at 11210 g/ha (Barnyardgrass [17]; 11.21 kg/ha): 100%; inhibition at 11210 g/ha (Seedling johnsongrass [18]; 11.21 kg/ha): 100%; inhibition at 11210 g/ha (Wild buckwheat [19]; 11.21 kg/ha): 100%; inhibition at 11210 g/ha (Cocklebur [20]; 11.21 kg/ha): 100%
"COCOc1cc(-c2nn(C)c(C(F)(F)F)c2Cl)c(F)cc1Cl [Compound 308, 4-Chloro-3-(4-chloro-2-fluoro-5-(methoxy-methoxy)phenyl)-1-methyl-5-(trifluoromethyl)-1H-pyrazole]",100%,100%,90%,20%,100%,90%,100%,100%,100%,90%,100%,100%,100%,40%,100%,100%,100%,100%,100%,80%,
Cn1nc(-c2cc(O)c(Cl)cc2F)c(Cl)c1C(F)(F)Cl [Compound 329],100%,90%,100%,0%,90%,100%,90%,90%,100%,90%,100%,0%,70%,0%,0%,90%,0%,0%,100%,0%,
Cn1nc(-c2cc(/C=C/C(=O)O)c(Cl)cc2F)c(Cl)c1C(F)(F)F [Compound 351],100%,40%,100%,30%,30%,100%,70%,60%,100%,100%,100%,0%,80%,0%,0%,100%,0%,0%,100%,80%,
